In the oligonucleotide strings, read from the 5' end, every base follows the letter of its sugar. An asterisk marks phosphorothioate; unmarked linkages are phosphodiester. Other units and linkages are bracketed, terminal groups are in braces. A string of capitals states the bases alone. e = 2'-O-(2-methoxyethyl) (MOE); [5mC] = 5-methylcytosine; d = 2'-deoxy (DNA)
Assays:
human bcl-x mRNA = experiment: Total bcl-x mRNA and bcl-xs/bcl-xl ratio in A549 cells, RNase protection; assay type: cell-based; conditions: A549 cells; for bcl-xs/bcl-xl: 200 nM oligonucleotide (Table 15)
Description: (§1) In accordance with the present invention, a series of oligonucleotides were designed to target different regions of human bcl-x RNA, using published sequences (Boise, L. H., et al., 1993, Cell 74, 597-608; Genbank Accession No. L20121, locus name “HSBCLXL,” incorporated herein as SEQ ID NO: 39). Antisense oligonucleotides were designed to target areas of exon 1 and exon 2 of human bcl-x, particularly around the exon 1/exon 2 splice site and in sequence regions present in bcl-xl but not in bcl-xs. All backbone linkages are phosphorothioates; All 2′MOE cytosines are 5-methylcytosines.
(§2) Oligonucleotides were evaluated for their respective effects on bcl-xs and bcl-xl3 mRNA levels in A549 cells along with total bcl-x mRNA levels, using the RIBOQUANT™ RNase protection kit (Pharmingen, San Diego Calif.). All assays were performed according to manufacturer's protocols.
(§3) A “walk” was done in this region with 20mer 2′-MOE phosphorothioate oligonucleotides targeted to sequences whose 5′ ends were 24, 26, 29, 31, 33, 37, 39, 41, 43, 44, 45 and 47 bases upstream of the splice site. These oligonucleotides were screened as before at a dose of 200 nM oligonucleotide for effect on short and long bcl-x transcripts.

[1] = tested on: murine IL-5 receptor α mRNA, membrane form; experiment: Membrane IL-5 receptor α mRNA by Northern blot in BCL1 cells; assay type: cell-based, mouse; conditions: for % INHIB'N MEMBRANE IL-5 RECEPTOR: 10 μM dose, exon-exon boundary oligonucleotides; for % control membrane IL-5 Rα / % inhib'n membrane IL-5 Rα / % inhibition of membrane IL-5 Rα: BCL1 cells, 10 μM; for % control membrane IL-5 Rα / % inhib'n membrane IL-5 Rα: 24 hours, uniform 2′-MOE; for % inhibition of membrane IL-5 Rα: Northern blot, compared to untreated control, 2′-MOE gapmers
Description: (§4) Murine BCL1 cells were chosen for screening antisense oligonucleotides targeted to murine IL-5 receptor α. These are B-cell leukemia cells derived from a spontaneously arising tumor of BALB/c origin, and proliferate in response to murine or human IL-5. This is a CD5+line which resembles a subset of human chronic lymphocytic leukemia tumors and secretes IgM upon lipopolysaccharide stimulation. Cells were obtained from the American Type Culture Collection and cultured in RPMI 1640 medium supplemented with 10% heat-inactivated fetal bovine serum (Sigma Chemical Co., St. Louis, Mo.), 10 mM Hepes, pH 7.2, 50 μM 2-ME, 2 mM L-glutamine, 100 U/ml penicillin and 100 μg/ml streptomycin (Gibco, Grand Island, N.Y.).
(§5) The effect of these compounds on both membrane and soluble forms of murine IL-5 receptor α were measured and are shown in Table 1B. Oligonucleotides were screened in BCL1 cells at a dose of 10 μM and IL-5 receptor α mRNA was measured by Northern blot. Percent inhibition is compared to untreated (no oligo) control.
(§6) Total BCL1 cellular RNA was isolated using the RNeasy™ kit (Qiagen, Santa Clara Calif.) . Northern blotting was performed using standard methods. The cDNA probes were generated from oligonucleotides matching the exon sequences of either exons 2, 8, 9 or 10. Signals were quantitated using a Molecular Dynamics PhosphorImager.

[2] = tested on: murine IL-5 receptor α mRNA, soluble form; experiment: Soluble IL-5 receptor α mRNA by Northern blot in BCL1 cells; assay type: cell-based, mouse; conditions: for % INHIB'N SOLUBLE IL-5 RECEPTOR: 10 μM dose, exon-exon boundary oligonucleotides; for % control soluble IL-5 Rα / % inhibition of soluble IL-5 Rα: BCL1 cells, 10 μM; for % control soluble IL-5 Rα: 24 hours, uniform 2′-MOE; for % inhibition of soluble IL-5 Rα: Northern blot, compared to untreated control, 2′-MOE gapmers
Description: as §4, §5, §6

human bcl-xs mRNA = experiment: bcl-xs mRNA in A549 cells, RIBOQUANT RNase protection; assay type: cell-based; conditions: 200 nM oligonucleotide (Table 15)
Description: as §1, §2, §3

human bcl-xl mRNA = experiment: bcl-xl mRNA in A549 cells, RIBOQUANT RNase protection; assay type: cell-based; conditions: 200 nM oligonucleotide (Table 15)
Description: as §1, §2, §3

## 23172 (GTTCCTGGCCCTTTCGGCTC; listed as DNA, chemistry not fully specified) [compound 23172]
Human bcl-x mRNA
  bcl-xs/bcl-xl* (change from the no-oligo ratio 17.56, which reads 1): 1.1

## 21851 (eT*eA*eA*eA*eT*eG*eA*e[5mC]*eA*e[5mC]*eA*e[5mC]*eT*e[5mC]*eT*eG*e[5mC]*eA*eG*eA; antisense) [compound 21851]
[1]
  % INHIB'N MEMBRANE IL-5 RECEPTOR: 61%
[2]
  % INHIB'N SOLUBLE IL-5 RECEPTOR: 0%

## 26071 (antisense GCCGTTCTCCTGGATCCAAG; all 2'-MOE, all phosphorothioate, methylation of C not given here) [compound 26071]
Human bcl-xs mRNA
  % CONTROL bcl-xs: 295%
Human bcl-xl mRNA
  % CONTROL bcl-xl: 37%
Human bcl-x mRNA
  bcl-xs/bcl-xl: 7.97

## 26070 (antisense GTTCTCCTGGATCCAAGGCT; all 2'-MOE, all phosphorothioate, methylation of C not given here) [compound 26070]
Human bcl-xs mRNA
  % CONTROL bcl-xs: 242%
Human bcl-xl mRNA
  % CONTROL bcl-xl: 37%
Human bcl-x mRNA
  bcl-xs/bcl-xl: 6.54

## SEQ ID NO 54: CTCTAGGTGGTCATTCAGGT; 20mer 2′-MOE phosphorothioate, no ISIS # printed; Exon 1L 652-671 (all 2'-MOE, all phosphorothioate, methylation of C not given here)
Human bcl-xs mRNA
  % CONTROL bcl-xs: 300%
Human bcl-xl mRNA
  % CONTROL bcl-xl: 42%
Human bcl-x mRNA
  bcl-xs/bcl-xl: 7.14

## 21759 (eA*e[5mC]*eT*e[5mC]*eT*eG*e[5mC]*eA*eG*eA*eT*eG*eA*eG*eT*eG*eA*eG*eA*eA; splice-switching) [compound 21759]
[1]
  % control membrane IL-5 Rα: 34%
  % inhib'n membrane IL-5 Rα: 66%
[2]
  % control soluble IL-5 Rα: 134%

## 21752 (eG*e[5mC]*e[5mC]*eA*eT*eT*e[5mC]*eT*eA*e[5mC]*e[5mC]*eA*eA*eG*eG*eA*e[5mC]*eT*eT*e[5mC]) [compound 21752]
[1]
  % control membrane IL-5 Rα: 6%
[2]
  % control soluble IL-5 Rα: 194%

## 18002 (GCCATTCTACCAAGGACTTC; listed as DNA, chemistry not fully specified) [compound 18002]
[1]
  % inhibition of membrane IL-5 Rα: 5%
[2]
  % inhibition of soluble IL-5 Rα: 8%

## 26069 (antisense TCTCCTGGATCCAAGGCTCT; all 2'-MOE, all phosphorothioate, methylation of C not given here) [compound 26069]
Human bcl-xs mRNA
  % CONTROL bcl-xs: 232%
Human bcl-xl mRNA
  % CONTROL bcl-xl: 40%
Human bcl-x mRNA
  bcl-xs/bcl-xl: 5.80

## 21750 (eG*eA*e[5mC]*eT*eT*e[5mC]*e[5mC]*eT*eT*eT*e[5mC]*e[5mC]*eT*eT*eT*e[5mC]*e[5mC]*eT*eG*eG) [compound 21750]
[1]
  % control membrane IL-5 Rα: 8%
  % inhib'n membrane IL-5 Rα: 92%
[2]
  % control soluble IL-5 Rα: 197%

## SEQ ID NO 58: CCAAGGCTCTAGGTGGTCAT; 20mer 2′-MOE phosphorothioate, no ISIS # printed; Exon 1L 658-677 (all 2'-MOE, all phosphorothioate, methylation of C not given here)
Human bcl-xs mRNA
  % CONTROL bcl-xs: 271%
Human bcl-xl mRNA
  % CONTROL bcl-xl: 26%
Human bcl-x mRNA
  bcl-xs/bcl-xl: 10.42

## 21753 (eA*e[5mC]*eA*eA*eT*eG*eA*eG*eA*eT*eG*e[5mC]*e[5mC]*eA*eT*eT*e[5mC]*eT*eA*e[5mC]; splice-switching) [compound 21753]
[1]
  % control membrane IL-5 Rα: 6%
  % inhib'n membrane IL-5 Rα: 94%
[2]
  % control soluble IL-5 Rα: 175%

## 18007 (eT*eG*e[5mC]*eA*eG*dA*dT*dG*dA*dG*dT*dG*dA*dG*dA*eA*eG*eA*eT*eT; antisense) [compound 18007]
[1]
  % inhibition of membrane IL-5 Rα: 65%
[2]
  % inhibition of soluble IL-5 Rα: 65%

## 21754 (eT*eG*eT*eT*eG*eG*eG*eA*eG*e[5mC]*eA*e[5mC]*eA*eA*eT*eG*eA*eG*eA*eT; splice-switching) [compound 21754]
[1]
  % control membrane IL-5 Rα: 8%
  % inhib'n membrane IL-5 Rα: 92%
[2]
  % control soluble IL-5 Rα: 184%

## 21751 (e[5mC]*eA*eA*eG*eG*eA*e[5mC]*eT*eT*e[5mC]*e[5mC]*eT*eT*eT*e[5mC]*e[5mC]*eT*eT*eT*e[5mC]; splice-switching) [compound 21751]
[1]
  % control membrane IL-5 Rα: 9%
  % inhib'n membrane IL-5 Rα: 91%
[2]
  % control soluble IL-5 Rα: 191%

## 21847 (eG*eT*eT*eT*eT*eT*e[5mC]*e[5mC]*eT*eT*e[5mC]*eT*eG*eA*eA*eT*eG*eT*eG*eA; antisense) [compound 21847]
[1]
  % INHIB'N MEMBRANE IL-5 RECEPTOR: 23%
[2]
  % INHIB'N SOLUBLE IL-5 RECEPTOR: 20%

## 18006 (TGAGAAGATTAACAAGACGA; antisense; listed as DNA, chemistry not fully specified) [compound 18006]
[1]
  % inhibition of membrane IL-5 Rα: 59%
[2]
  % inhibition of soluble IL-5 Rα: 65%

## 18001 (CAAGGACTTCCTTTCCTTTC; antisense; listed as DNA, chemistry not fully specified) [compound 18001]
[1]
  % inhibition of membrane IL-5 Rα: 35%
[2]
  % inhibition of soluble IL-5 Rα: 39%

## 26067 (GGATCCAAGGCTCTAGGTGG; all 2'-MOE, all phosphorothioate, methylation of C not given here) [compound 26067]
Human bcl-xs mRNA
  % CONTROL bcl-xs: 211%
Human bcl-xl mRNA
  % CONTROL bcl-xl: 32%
Human bcl-x mRNA
  bcl-xs/bcl-xl: 6.59

## SEQ ID NO 55: GGCTCTAGGTGGTCATTCAG; 20mer 2′-MOE phosphorothioate, no ISIS # printed; Exon 1L 654-673 (all 2'-MOE, all phosphorothioate, methylation of C not given here)
Human bcl-xs mRNA
  % CONTROL bcl-xs: 316%
Human bcl-xl mRNA
  % CONTROL bcl-xl: 47%
Human bcl-x mRNA
  bcl-xs/bcl-xl: 6.72

## 21849 (e[5mC]*eT*eT*eT*e[5mC]*e[5mC]*eT*eT*eT*e[5mC]*e[5mC]*e[5mC]*eA*e[5mC]*eA*eT*eA*eA*eA*eT) [compound 21849]
[1]
  % INHIB'N MEMBRANE IL-5 RECEPTOR: 70%
[2]
  % INHIB'N SOLUBLE IL-5 RECEPTOR: 5%

## SEQ ID NO 57: AAGGCTCTAGGTGGTCATTC; 20mer 2′-MOE phosphorothioate, no ISIS # printed; Exon 1L 656-675 (all 2'-MOE, all phosphorothioate, methylation of C not given here)
Human bcl-xs mRNA
  % CONTROL bcl-xs: 405%
Human bcl-xl mRNA
  % CONTROL bcl-xl: 53%
Human bcl-x mRNA
  bcl-xs/bcl-xl: 7.64

## 18008 (ACTCTGCAGATGAGTGAGAA; antisense; listed as DNA, chemistry not fully specified) [compound 18008]
[1]
  % inhibition of membrane IL-5 Rα: 75%
[2]
  % inhibition of soluble IL-5 Rα: 75%

## 21755 (eA*eG*e[5mC]*eA*eG*eG*e[5mC]*eA*eG*e[5mC]*eT*eG*eT*eT*eG*eG*eG*eA*eG*e[5mC]; splice-switching) [compound 21755]
[1]
  % control membrane IL-5 Rα: 16%
  % inhib'n membrane IL-5 Rα: 84%
[2]
  % control soluble IL-5 Rα: 181%

## 21855 (eT*e[5mC]*eG*eA*eA*eG*eG*eT*eT*eT*e[5mC]*e[5mC]*eA*e[5mC]*eA*eT*eA*eA*eA*eT) [compound 21855]
[1]
  % INHIB'N MEMBRANE IL-5 RECEPTOR: 14%
[2]
  % INHIB'N SOLUBLE IL-5 RECEPTOR: 25%

## 18005 (AGCAGGCAGCTGTTGGGAGC; antisense; listed as DNA, chemistry not fully specified) [compound 18005]
[1]
  % inhibition of membrane IL-5 Rα: 55%
[2]
  % inhibition of soluble IL-5 Rα: 59%

## 21758 (eT*eG*e[5mC]*eA*eG*eA*eT*eG*eA*eG*eT*eG*eA*eG*eA*eA*eG*eA*eT*eT; splice-switching) [compound 21758]
[1]
  % control membrane IL-5 Rα: 31%
  % inhib'n membrane IL-5 Rα: 69%
[2]
  % control soluble IL-5 Rα: 116%

## 18003 (ACAATGAGATGCCATTCTAC; antisense; listed as DNA, chemistry not fully specified) [compound 18003]
[1]
  % inhibition of membrane IL-5 Rα: 15%
[2]
  % inhibition of soluble IL-5 Rα: 20%

## 21760 (e[5mC]*eT*eA*e[5mC]*eA*e[5mC]*eT*e[5mC]*eT*eG*e[5mC]*eA*eG*eA*eT*eG*eA*eG*eT*eG) [compound 21760]
[1]
  % control membrane IL-5 Rα: 55%
  % inhib'n membrane IL-5 Rα: 45%
[2]
  % control soluble IL-5 Rα: 116%

## 21853 (eT*eA*eA*eA*eT*eG*eA*e[5mC]*eA*e[5mC]*e[5mC]*e[5mC]*eA*e[5mC]*eA*eT*eA*eA*eA*eT; antisense) [compound 21853]
[1]
  % INHIB'N MEMBRANE IL-5 RECEPTOR: 14%
[2]
  % INHIB'N SOLUBLE IL-5 RECEPTOR: 45%
